According to article PMC7641325, “Fragment-based discovery of a new class of inhibitors targeting mycobacterial tRNA modification” (Nucleic Acids Research, 2020):
Converted amounts (≈) assume the structure as drawn. Where two headings read alike, the source gives them in different places.

Legend:
M. abscessus TrmD [1] = biological target: T1, M. abscessus TrmD (Mycobacteroides abscessus, UniProt B1MDI3); test: TrmD methylation (methyltransferase) inhibition assay, UPLC readout; assay type: biochemical; settings: for IC50: 6.25 μM SAM, 0.1 μM TrmD, 6.25 μM tRNA ProUGG, 1 h room temperature
T1 sequence (B1MDI3 entry or part of it): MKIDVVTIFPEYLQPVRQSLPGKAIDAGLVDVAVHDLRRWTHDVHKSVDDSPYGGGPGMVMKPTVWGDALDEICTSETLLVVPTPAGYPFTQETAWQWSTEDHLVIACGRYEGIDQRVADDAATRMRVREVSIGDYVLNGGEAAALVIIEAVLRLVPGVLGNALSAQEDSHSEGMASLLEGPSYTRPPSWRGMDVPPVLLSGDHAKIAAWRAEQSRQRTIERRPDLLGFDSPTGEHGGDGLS
Description: Assays for quantifying TrmD methylation reactions were carried out in 20 μl reactions consisting of 6.25 μM SAM, 0.1 μM TrmD and 6.25 μM tRNA^ProUGG in the presence of 0–500 μM compounds in serial dilutions using assay buffer containing 50 mM Tris–HCl pH 7.5, 10 mM MgCl2, 24 mM NH4Cl, 5% DMSO and 1 mM DTT in nuclease free water. tRNA sequences were identified from the M. abscessus genome sequence using tRNAscan-SE algorithm, ([38],[39]). […]. The reactions were carried out for 1 h at room temperature followed by addition of 20 mM EDTA to stop the reactions. Each of the 20 μl samples were diluted ten-fold with the UPLC mobile phase solvent A (0.1% formic acid in water), centrifuged for 10 min at 13 000 g, to remove any precipitates, and the supernatant was aliquoted into 96-well plates. 40 μl samples were then injected into Acquity UPLC (Waters) T3 […] column and eluted using a gradient elution consisting of Mobile Phase A: 0.1% formic acid in water and mobile phase B: 0.1% formic acid in 100% methanol for 4 min. The absorbance was monitored using a photodiode array (PDA) detector (Waters) at wavelength range of ƛ: 220–500 nm. All reactions were carried out in triplicate. The blank corrected data were analyzed using Microsoft excel and non-linear regression analysis for IC50 determination were done using GraphPad prism version 7.00, GraphPad Software, La Jolla, CA, USA.

M. abscessus TrmD [2] = biological target: T1, M. abscessus TrmD; test: biochemical; assay type: binding; settings: for LE (ligand efficiency): from M. abscessus TrmD Kd; for fold improvement in affinity (decrease in Kd) over the parent compound: AW3 vs AW2, AW4 vs AW3, AW5 vs AW4
M. tuberculosis H37Rv = test: MIC measurement, M. tuberculosis; assay type: cell-based; settings: Mycobacterium tuberculosis, 336 h, 7H9 base with DPPC, 2 weeks, 37°C, read-out: Minimum inhibitory concentration (MIC) M. tuberculosis
M. abscessus = test: MIC measurement, M. abscessus; assay type: cell-based, Mycobacterium abscessus ssp. abscessus (ATCC 19977); settings: Mycobacteroides abscessus, ATCC19977; ATCC 19977, Middlebrook 7H9 ADC, 37°C; read-out: Minimum inhibitory concentration (MIC) M. abscessus
[3] = test system: M. abscessus-infected human macrophages; test: Macrophage infection study (CFU of intracellular M. abscessus); assay type: cell-based, Mycobacterium abscessus; settings: 25 μM compound, 48 h incubation
Excerpt: (§1) Blood samples were donated by healthy volunteers who had undertaken informed consent in accordance with local Research Ethics Committee approval. Peripheral blood mononuclear cells were isolated from citrated peripheral blood samples by density gradient separation using Lympholyte (Cedarlane Labs), and subsequent CD14^+ positive selection using the MACS Miltenyi Biotec Human CD14 microbead protocol (Miltenyi Biotec). CD14^+ cells were differentiated into macrophages using recombinant human granulocyte-macrophage colony-stimulating factor (200 ng/ml GM-CSF) and recombinant human interferon gamma (50 ng/ml IFNγ) (Peprotech) in standard tissue culture DMEM media containing fetal calf serum, penicillin and streptomycin. Following removal of antibiotics, macrophages were infected at a multiplicity of infection of 10:1 with M. abscessus 19977 for 2 h, washed in sterile phosphate buffered saline, and then incubated in DMEM media with FCS and 25 μM of compound for 24 and 48 h. At the given time points, supernatant was saved for cell cytotoxicity studies, and M. abscessus survival within the macrophages calculated by macrophage lysis in sterile water, and colony forming unit calculation on Columbia Blood Agar plates (VWR BDH).

M. chelonae = test: MIC measurement, M. chelonae; assay type: cell-based; settings: Mycobacteroides chelonae; clinical isolate; read-out: Minimum inhibitory concentration (MIC) M. chelonae
M. avium = test: MIC measurement, M. avium; assay type: cell-based; settings: Mycobacterium avium; clinical isolate; read-out: Minimum inhibitory concentration (MIC) M. avium
M. gordonae = test: MIC measurement, M. gordonae; assay type: cell-based; settings: Mycobacterium gordonae; clinical isolate; read-out: Minimum inhibitory concentration (MIC) M. gordonae
human macrophages = test: LDH release cytotoxicity assay; assay type: cell-based; settings: at or below a concentration of 150 μM
Excerpt: as §1, with “Following removal of antibiotics, macrophages were infected at a multiplicity of infection of 10:1 with M. abscessus 19977 for 2 h, washed in sterile phosphate buffered saline, and then incubated in DMEM media with FCS and 25 μM of compound for 24 and 48 h.” left out
Lactate dehydrogenase (LDH) was measured as a biomarker for cellular cytotoxicity using the Pierce LDH Cytotoxicity Assay Kit. Cell supernatant was measured at 2, 24 and 48 h post-infection according to the kit protocol.

M. tuberculosis TrmD = M. tuberculosis TrmD (Mycobacterium tuberculosis, UniProt P9WFY7); test: Isothermal titration calorimetry (ITC) with M. tuberculosis TrmD; assay type: binding
M. tuberculosis TrmD, sequence (P9WFY7 whole entry): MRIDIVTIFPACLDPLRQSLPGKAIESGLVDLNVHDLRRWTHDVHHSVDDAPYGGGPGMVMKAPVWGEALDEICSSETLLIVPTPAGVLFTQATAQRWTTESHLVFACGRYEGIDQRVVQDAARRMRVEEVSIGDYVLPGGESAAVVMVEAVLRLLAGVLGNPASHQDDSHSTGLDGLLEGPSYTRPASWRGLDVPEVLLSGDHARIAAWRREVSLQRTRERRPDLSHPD
Description: ITC experiments to quantify binding of ligands to TrmD were done as described in ([37]) using Malvern MicroCal iTC200 or Auto-iTC200 systems at 25°C. Titrations consisted of an initial injection (0.2 μl), discarded during data processing, followed by either 19 (2 μl) or 39 (1 μl) injections separated by intervals of 60–150 s duration. Protein was dialysed overnight at 4°C in storage buffer (M. abscessus TrmD: 50 mM HEPES pH 7.5, 500 mM NaCl, 5% glycerol; M. tuberculosis TrmD: 25 mM HEPES pH 7.5, 500 mM NaCl). Sample cell and syringe solutions were prepared using the same storage buffer, with a final DMSO concentration of 2–10% according to ligand solubility in the buffer. TrmD concentrations of either 33 or 100 μM were used, with ligand to protein concentration ratios ranging from 10 to 20:1. Control titrations without protein were also performed and subtracted from ligand to protein titrations. Titrations were fitted with Origin software (OriginLab, Northampton, MA, USA), using a one-site binding model with N fixed to 1 only for weakly binding ligands. Titrations were typically performed once (n = 1), with multiple isotherms obtained (n > 1) for key compounds of interest. Kd values are reported to two significant figures. Error provided by Origin software due to model fit is reported when n = 1, whereas standard deviation is reported when n > 1.

M. terrae = test: MIC measurement, M. terrae; assay type: cell-based; settings: Mycolicibacter terrae; clinical isolate; read-out: Minimum inhibitory concentration (MIC) M. terrae
M. fortuitum = test: MIC measurement, M. fortuitum; assay type: cell-based; settings: Mycolicibacterium fortuitum; clinical isolate; read-out: Minimum inhibitory concentration (MIC) M. fortuitum
[4] = test system: axenically-maintained M. leprae; test: M. leprae axenic culture, radiorespirometry; assay type: cell-based, Mycobacterium leprae; settings: 100-6.25 μM, 7 days, 33°C
Description: Freshly harvested nude mouse foot pad derived M. leprae were suspended in modified 7H12 medium, AW7 was added at different concentrations (100–6.25 μM) and were incubated for 7 days at 33°C. Media only and rifampin (Sigma, USA) at 2.4 μM were used as negative and positive controls. Following incubation aliquots of AW7 treated and control M. leprae were processed for radiorespirometry (RR) as described previously ([43]).
(§2) Metabolism of a suspension of M. leprae was measured by evaluating the oxidation of ^14C-palmitic acid to ^14CO2 by radiorespirometry as described previously ([45]). Levels of captured ^14CO2 is proportional to the rate of ^14C-palmitic acid oxidation and used as an indicator of M. leprae viability. In the present study the seventh day cumulative counts per minute (CPM) were recorded and percentage inhibition of metabolism determined as compared to no drug control. Statistical significance between treatment groups and no drug control were determined by Student's t-test and P < 0.05 is considered as significant.

M. abscessus TrmD [5] = biological target: T1, M. abscessus TrmD; test: CRISPR-dCas9 knockdown of trmD in M. abscessus (target engagement); settings: 25 μM AW7, doxycycline 1.5625-100 ng/ml, 72 h; effect not seen with yidC gRNA or empty vector
Description: The dCas9 encoding plasmid (pTetInt-dcas9-Km) and the second vector containing the sgRNA cassette (pGRNAz) were derived from the tetracycline inducible CRISPr Interference system of Choudhary et al. ([40]) and optimized for M. abscessus ATCC19977. The 20 nucleotides guides targeting yidC(MAB_4953c) and trmD(MAB_3226c) were annealed and cloned in between sphI and aclI of the pGRNAz. As a control the pGRNAz was left empty. The CRISPr-I containing strains were cultivated in Middlebrook 7H9 broth supplemented with 1× ADC, 0.05% tween80 and 0.5% glycerol, hygromycin 1 mg/ml and zeocin 300 μg/ml. The cultures were inoculated at 10^6CFU/ml from an exponentially grown pre-cultures. […] The OD600 was measured and the CFU counted at 72 h.

[6] = test system: M. leprae maintained intracellularly in murine bone marrow macrophage; test: Intracellular M. leprae in murine bone marrow macrophages, radiorespirometry; assay type: cell-based; settings: Mycobacterium leprae, 168 h, AW7 at 6.2 μM, 7 days, read-out: inhibition of β-oxidation (14C-palmitic acid oxidation, radiorespirometry)
Description: Bone marrow cells were obtained aseptically from both femurs of female BALB/c mice and cultured on plastic cover slips in Dulbecco modified Eagle's medium (DMEM, Life Technologies, USA) supplemented with 10% (v/v) fetal calf serum (Life Technologies), 25 mM/l HEPES (Sigma, USA), 2 mM/l glutamine (Sigma, USA), 50 μg/ml ampicillin (Sigma, USA) and 10 ng/ml of recombinant murine macrophages colony stimulating factor (R&D Systems, USA) for 6–7 days at 37°C and 5% CO2. The cells were infected with freshly harvested nude mice foot pad derived live M. leprae at a multiplicity of infection (MOI) of 20:1 overnight at 33°C and then washed to remove extracellular bacteria. AW7 was added at different concentrations (100–6.25 μM) and the cells were incubated for 7 days at 33°C. Media only and rifampicin at 2.4 μM were used as negative and positive controls. […]
as §2, with “Levels of captured ^14CO2 is proportional to the rate of ^14C-palmitic acid oxidation and used as an indicator of M. leprae viability.” left out

[7] = ITC, 25°C, M. abscessus TrmD, read-out: Kd

SMILES	IC50 (M. abscessus TrmD [1])	Kd (M. abscessus TrmD [2]; [7])	LE (ligand efficiency) (M. abscessus TrmD [2])	fold improvement in affinity (decrease in Kd) over the parent compound (M. abscessus TrmD [2])	MIC (M. tuberculosis H37Rv)	MIC (M. abscessus)	also measured
Nc1cc(-c2ccc3cc[nH]c3c2)[nH]n1 [AW1]	230000 ± 29000 nM	110000 ± 11000 nM	0.36 kcal/ mol/ heavy atom				
Nc1cc(-c2ccc3ccn(Cc4ccccn4)c3c2)[nH]n1 [AW2]	33000 ± 4000 nM	12000 ± 1000 nM	0.30 kcal/ mol/ heavy atom				
N#Cc1c(N)n[nH]c1-c1ccc2ccn(Cc3ccccn3)c2c1 [AW3]	310 ± 10 nM	500 ± 140 nM	0.36 kcal/ mol/ heavy atom	25 fold			fold decrease in IC50 over the parent compound (M. abscessus TrmD [1]; AW3 vs AW2): 100 fold
N#Cc1c(N)n[nH]c1-c1ccc2ccn(Cc3ccc(CN4CCCC4)cn3)c2c1 [AW4]		92 ± 18 nM	0.32 kcal/ mol/ heavy atom	5 fold			
N#Cc1c(N)n[nH]c1-c1ccc2ccn(Cc3ccc(CN4CCCC4)cc3)c2c1 [AW5]	30 ± 3 nM	27 ± 4 nM	0.34 kcal/ mol/ heavy atom	> 3 fold	12.5 µM (≈ 4.96 µg/mL)	50 µM (≈ 19.8 µg/mL)	
Nc1cc(-c2ccc3ccn(Cc4ccc(CN5CCCC5)cc4)c3c2)[nH]n1 [AW6]	1400 ± 100 nM		0.31 kcal/ mol/ heavy atom		6.3 µM (≈ 2.34 µg/mL)	50 µM (≈ 18.6 µg/mL)	decrease in CFUs compared to the no drug control [3]: ~82%; MIC (M. chelonae): 100 µM (≈ 37.1 µg/mL); MIC (M. avium): 200 µM (≈ 74.3 µg/mL); MIC (M. gordonae): 100 µM (≈ 37.1 µg/mL); cellular toxicity (LDH release) (human macrophages): neither compound caused cellular toxicity; Kd (M. abscessus TrmD [2]): 490 ± 210 nM; Kd (M. tuberculosis TrmD): 900 nM; MIC (M. terrae): 100 µM (≈ 37.1 µg/mL); MIC (M. fortuitum): 100 µM (≈ 37.1 µg/mL)
CN1CCN(Cc2ccc(Cn3ccc4ccc(-c5[nH]nc(N)c5C#N)cc43)cc2)CC1 [AW7]	69 ± 7 nM		0.30 kcal/ mol/ heavy atom		6.3 µM (≈ 2.68 µg/mL)	50 µM (≈ 21.3 µg/mL)	decrease in CFUs compared to the no drug control [3]: 95%; inhibitory activity against axenic M. leprae (radiorespirometry) [4]: show inhibitory activity; MIC (M. chelonae): 100 µM (≈ 42.6 µg/mL); MIC (M. avium): 100 µM (≈ 42.6 µg/mL); MIC (M. gordonae): 100 µM (≈ 42.6 µg/mL); cellular toxicity (LDH release) (human macrophages): neither compound caused cellular toxicity; sensitivity of M. abscessus to the compound on incremental silencing of TrmD (M. abscessus TrmD [5]): progressively more sensitive to AW7; inhibition at 6.2 µM [6]: > 50%; Kd (M. abscessus TrmD [2]): 73 ± 30 nM; Kd (M. tuberculosis TrmD): 330 nM; MIC (M. terrae): 25 µM (≈ 10.6 µg/mL); MIC (M. fortuitum): 100 µM (≈ 42.6 µg/mL)
COc1ccc(-c2cc(N)n[nH]2)cc1 [Fragment 23]		170000 nM	0.37 kcal/ mol/ heavy atom				
OB(O)c1ccc2cc[nH]c2c1 [Fragment 24]		260000 nM	0.41 kcal/ mol/ heavy atom				
